Data as given in patent publication US20220023269A1, “Methods Of Treating Diabetes In Severe Insulin-Resistant Diabetic Subjects” (Balticgruppen Bio AB, priority 2018, published 2022).

Experiments:
[1] = tested on: AMPK in human hepatocytes; experiment: AMPK activation assay in human hepatocytes; type: cell-based; settings: cells preferentially expressing β2 subunit
Protocol: All cell lines were lysed in 0.1 M Tris-HCl, pH 6.8, 2% SDS, 10 mM sodium fluoride (SIGMA #S7920), 10 mM β-glycerophosphate (SIGMA #G6376), and 1 mM sodium vanadate (SIGMA #72060) and supernatant collected after 1 minute at 14,000 rpm. Islets (human and mouse) were lysed in 0.1 M Tris-HCl, pH 6.8, 2% SDS, protease inhibitor (Roche #04 693 124 001) and phosphatase inhibitor (Roche #04 906 837 001). Right calf muscle, heart, iWAT, and interscapular BAT was crushed in a pestle using liquid nitrogen and homogenised in ice cold RIPA buffer (150 mM sodium chloride (SIGMA #S7653), 1.0% NP40 (USB), 0.5% sodium deoxycholate (SIGMA #D6750), 0.1% SDS, 50 mM Tris pH 8.0, 20 mM sodium pyrophosphate (SIGMA #71515), 10 mM sodium fluoride, 10 mM β-glycerolphosphate, 1 mM sodium vanadate and protease inhibitor cocktail (Roche #04693124001), 1 tablet/10 ml lysis buffer). The supernatant was collected after 2 min at 14,000 rpm. This procedure was repeated until all fat was eliminated and the supernatant was clear, at 4° C. Samples were analysed on 4-15% polyacrylamide gels. Values were normalised toward AMPKα, β-Actin, GAPDH or the respective non-phosphorylated counterpart.
Table 3 contains origin of cell lines, growth conditions and settings for activation of AMPK via the test material. […]

CBA mice on HFD = experiment: In vivo lipogenesis; settings: 2 mg/g in HFD, 5 weeks
Protocol: After 90 minutes 0.2-0.3 g liver were isolated and homogenised in 3 ml PBS before addition of 6 ml chloroform/methanol (2:1). Samples were mixed until phase separation no longer occurred and left at RT 30 minutes before centrifuged, 4,500 rpm, 5 minutes. The water phase was removed and 3 ml chloroform transferred to a scintillation vial and evaporated to dryness by a stream of nitrogen while standing in a 40° C. water bath. The residue was dissolved in 3 ml optiphase hisafe 3 (Perkin Elmer #1200.437) and ^3H determined for 1 minute in a Wallac 1414 counter. ^3H values were normalised to liver weight.

Wistar rats = experiment: 6 months oral gavage in Wistar rats; type: in vivo; settings: 100, 300 and 600 mg/kg/day gavage, RD, vs vehicle
Protocol: 8-10 weeks old Wistar male and female rats were treated by oral gavage with vehicle or test material at 100, 300 or 600 mg/kg/day for 6 months.

[2] = tested on: Wi-38 human lung fibroblast cells; experiment: Determination of cellular ATP content; type: cell-based; settings: 16 hours; dose-dependent
Protocol: Wi-38 human lung fibroblast cells were stimulated with test material for 16 hours. Thereafter ATP content were determined with the ATP bioluminescence assay kit HS II (Roche Applied Science #11699709001) according to manufacturer's recommendations. The ATP data were normalised to cellular protein determined using BCA protein assay kit (Pierce #23225).

[3] = tested on: patients suffering from type-2 diabetes; experiment: Renal hemodynamics / glomerular perfusion in humans; type: in vivo, human

`O=C(Nc1nc(=O)n(Cc2ccc(Cl)cc2)s1)c1ccc(Cl)cc1` [test material, 4-chloro-N-[2-[(4-chlorophenyl)methyl]-3-oxo-1,2,4-thiadiazol-5-yl]benzamide] was tested, and the pAMPK [1] was “increased pAMPK”, the “reduction of hepatic DNL” value (CBA mice on HFD) was roughly 45% and the heart/brain weight (Wistar rats) was “did not show increased heart/brain weight”. For the same compound, the ATP/protein ratio [2] was “increased”, the “microvascular perfusion in glomeruli” value ([3]; humans) was “positive effect on microvascular perfusion in glomeruli” and the renal hemodynamics ([3]; patients suffering from type-2 diabetes) was “positive effects on renal hemodynamics”.
